For data set [1], the system named is response to the pain in mice. Briefly: Hot Plate test (analgesic effect). A general note: In hot-plate and tail-flick tests a longer latency is read as antinociception.
Data set [2] has as its system response to the pain in mice. In words: Tail Flick test (analgesic effect).
Where [3] appears, read: 10 mg/kg i.p., 30 min, formula (I) compounds as formates.
Where [4] appears, read: 10 mg/kg i.p., 60 min, formula (I) compounds as formates.
Setting [5] is: 10 mg/kg i.p., 120 min, formula (I) compounds as formates.
[6] abbreviates: 10 mg/kg i.p., 240 min, formula (I) compounds as formates.
The mark [7] stands for this setting: 10 mg/kg i.p., 360 min, formula (I) compounds as formates.
[8] abbreviates: 20 mg/kg i.p., 30 min, as formates.
Where [9] appears, read: 20 mg/kg i.p., 60 min, as formates.
The mark [10] stands for this setting: 20 mg/kg i.p., 120 min, as formates.
[11] abbreviates: 20 mg/kg i.p., 240 min, as formates.
Where [12] appears, read: 20 mg/kg i.p., 360 min, as formates.

The structures appear in SMILES notation.

A word on the melting point: it is the temperature, or range, at which the solid turns liquid.

For `CCC(=O)N1CCC2CCC(C1)N2C/C=C(\C)c1ccccc1` (stereo not shown) [I-Aa], the melting point lay in the range of 230 to 232 °C. The MPE % in data set [1] (setting [3]) is 49.5 ± 10.5%. The MPE % in data set [1] (setting [4]) worked out at 25.1 ± 6.1%. Besides, the MPE % in data set [1] (setting [5]) amounted to 6.0 ± 3.0%. For the same compound, the MPE % in data set [1] (setting [6]) is given as 3.2 ± 3.0%. The MPE % in data set [1] (setting [7]) came out at 4.1 ± 1.0%. Besides, in data set [2] (setting [3]), the MPE % worked out at 65.5 ± 6.5%. For the same compound, the MPE % in data set [2] (setting [4]) amounted to 20.1 ± 4.1%. Further, the MPE % in data set [2] (setting [5]) was determined as 10.0 ± 1.0%. The MPE % in data set [2] (setting [6]) was 3.1 ± 2.0%. Also, the MPE % in data set [2] (setting [7]) is −3.0 ± 0.5%.

`CCC(=O)N1CCC2CCC(C1)N2C/C=C(\C)c1ccc(Cl)c(Cl)c1` (stereo not shown) [I-Ab]: the melting point was in the range of 188 to 189 °C.

Compound `CCC(=O)N1CCC2CCC(C1)N2CC=C(c1ccccc1)c1ccccc1` (stereo not shown) [I-Ad] had a melting point of 176 to 177 °C.

In turn, `CCC(=O)N1C2CCC1CN(C/C=C(\C)c1ccccc1)CC2` (stereo not shown) [I-Ba] displayed a melting point of 228 to 230 °C. Also, the MPE % in data set [1] (setting [8]) amounted to 68.9 ± 7.2%. Further, in data set [1] (setting [9]), the MPE % is recorded as 50.5 ± 11.3%. The MPE % in data set [1] (setting [10]) is given as 7.0 ± 2.1%. Further, the MPE % in data set [1] (setting [11]) stood at 6.0 ± 2.1%. The MPE % in data set [1] (setting [12]) was −4.0 ± 2.0%. Besides, in data set [2] (setting [8]), the MPE % worked out at 89.9 ± 7.0%. Moreover, the MPE % in data set [2] (setting [9]) stood at 88.5 ± 10.3%. Also, the MPE % in data set [2] (setting [10]) is on record as 9.0 ± 2.5%. Also, in data set [2] (setting [11]), the MPE % amounted to 2.0 ± 1.1%. For the same compound, the MPE % in data set [2] (setting [12]) was −2.0 ± 1.0%.

`CCC(=O)N1C2CCC1CN(C/C=C(\C)c1ccc(Cl)c(Cl)c1)CC2` (stereo not shown) [I-Bb]: the melting point is 186 to 188 °C.

Regarding `CCC(=O)N1C2CCC1CN(CC=C(c1ccccc1)c1ccccc1)CC2` (stereo not shown) [I-Bd], the melting point fell in the range of 184 to 186 °C.

`CCC(=O)N1CCC2CCCC(C1)N2C/C=C(\C)c1ccccc1` (stereo not shown) [I-Ca] showed a melting point of 106 to 108 °C.

As to `CCC(=O)N1CCC2CCCC(C1)N2C/C=C(\C)c1ccc(Cl)c(Cl)c1` (stereo not shown) [I-Cb], the melting point lay within 184 to 185 °C.

The compound `CCC(=O)N1CCC2CCCC(C1)N2CC=C(c1ccccc1)c1ccccc1` (stereo not shown) [I-Cc] gave a melting point of 137 to 139 °C. The MPE % in data set [1] (setting [8]) is 55.2 ± 10.5%. The MPE % in data set [1] (setting [9]) stood at 40.9 ± 7.8%. In addition, the MPE % in data set [1] (setting [10]) came to 24.1 ± 7.3%. In data set [1] (setting [11]), the MPE % is 5.0 ± 4.0%. Moreover, the MPE % in data set [1] (setting [12]) was found to be 0.1 ± 1.1%. Also, the MPE % in data set [2] (setting [8]) is on record as 80.2 ± 7.5%. In addition, the MPE % in data set [2] (setting [9]) was determined as 52.9 ± 8.1%. Moreover, in data set [2] (setting [10]), the MPE % is 42.1 ± 8.3%. Also, the MPE % in data set [2] (setting [11]) is reported as 14.6 ± 3.0%. Also, in data set [2] (setting [12]), the MPE % was 0.0 ± 0.8%.

Regarding `CCC(=O)N1C2CCCC1CN(C/C=C(\C)c1ccccc1)CC2` (stereo not shown) [I-Da], the melting point is 144 to 146 °C.

`CCC(=O)N1C2CCCC1CN(C/C=C(\C)c1ccc(Cl)c(Cl)c1)CC2` (stereo not shown) [I-Db] registered a melting point of 175 to 176 °C.

On to `CCC(=O)N1C2CCCC1CN(CC=C(c1ccccc1)c1ccccc1)CC2` (stereo not shown) [I-Dc], for which the melting point is 169 to 170 °C.

Turning to `CN1CC[C@]23c4c5ccc(O)c4O[C@H]2[C@@H](O)C=C[C@H]3[C@H]1C5` [Morphine, reference compound], the MPE % is on record as 60.5 ± 6.8% in data set [2] (setting [4]), 39.6 ± 4.0% in data set [2] (setting [5]), 19.1 ± 3.0% in data set [2] (setting [6]) and 6.1 ± 1.1% in data set [2] (setting [7]).
